# Source: patent US10463664B2, “Inhibitors of HSV nucleotidyl transferases and uses therefor” (Saint Louis University, priority 2013, dated 2019)
# Tests used:
# HSV-1 = assay: Anti-HSV-1 replication assay in Vero cells, titer by plaque assay; type: cell-based, herpes simplex virus 1; settings: for Anti-HSV-1 Log10 suppression 5 μM / Anti-HSV-1 Log10 suppression 50 μM: moi 0.1, 24 h, relative to DMSO; for Inhibition of HSV-1 replication (in words): primary screening; for Anti-HSV-1 Log10 suppression 5 μM (screening symbol) / Anti-HSV-1 Log10 suppression 50 μM (screening symbol): visual inspection
# Procedure: (§1) Anti-HSV-1 and -HSV-2 Replication Assay. Compounds to be screened were diluted in PBS supplemented to contain 2% newborn calf serum and 1% glutamine, and added in 100 μL, volume to confluent cell monolayers in 24-well cluster plates. Immediately thereafter HSV-1 and HSV-2, diluted in the supplemented PBS medium, were added to the wells in 50 μl volume such that the final concentration of compound was 50 μM and 5 μM and the multiplicity of infection was 0.1. The plates were incubated at 37° C. for 1 hour and then virus-containing inoculum was removed and the wells were washed once in PBS. Compounds, diluted to 50 μM and 5 μM in DMEM supplemented to contain 2% newborn calf serum and 1% each penicillin/streptomycin, were added at 0.5 mL/well. Plates were incubated at 37° C. an additional 23 hr, and then the plates were visually inspected through a phase contrast microscope for cytopathic effect, and for toxic effect. […] The entire contents of each well were collected by scraping. Samples were frozen at −80° C., and then subsequently thawed, sonicated, and infectious virus titer was determined by standard plaque assay on Vero cell monolayers. Because the compounds were dissolved at 10 mM in 100% DMSO, equivalent dilutions of DMSO were added to additional wells as a control for effects of the diluent. Each experiment was repeated once. EC50 values were determined as above except that serial dilutions of the compound to be tested were prepared starting at 50 μM. The inhibitory values were calculated by non-linear curve-fitting in GraphPad Prism.
# (§2) Monolayers were microscopically inspected 24 hours post-infection and wells in which more cells were visually healthier than the DMSO-treated controls were collected. Viral titers in the culture lysates were then determined by standard plaque assay on Vero cells. Inhibition of viral replication was categorized as <1 log10 relative to the DMSO-treated control, 1 to 3 log10 suppression, or ≥3 log10 suppression. […] Additionally, four polyoxygenated heterocycle compounds were tested (#128, 138, 139, 140).
# HSV-2 = assay: Anti-HSV-2 replication assay in Vero cells, titer by plaque assay; type: cell-based, herpes simplex virus 2; settings: for Anti-HSV-2 Log10 suppression 5 μM / Anti-HSV-2 Log10 suppression 50 μM: moi 0.1, 24 h, relative to DMSO; for Inhibition of HSV-2 replication (in words): primary screening; for Anti-HSV-2 Log10 suppression 5 μM (screening symbol) / Anti-HSV-2 Log10 suppression 50 μM (screening symbol): visual inspection
# Procedure: as §1, §2
# human RNaseH1 = target: T1, human RNaseH1 (Homo sapiens, UniProt O60930); assay: Biochemical inhibition of human RNaseH1 (oligonucleotide-directed RNA cleavage assay); settings: compounds at 60, 20 or 10 μM
# T1 construct: hexahistidine; made in house; host or cells: E. coli
# T1 sequence (O60930 1-286): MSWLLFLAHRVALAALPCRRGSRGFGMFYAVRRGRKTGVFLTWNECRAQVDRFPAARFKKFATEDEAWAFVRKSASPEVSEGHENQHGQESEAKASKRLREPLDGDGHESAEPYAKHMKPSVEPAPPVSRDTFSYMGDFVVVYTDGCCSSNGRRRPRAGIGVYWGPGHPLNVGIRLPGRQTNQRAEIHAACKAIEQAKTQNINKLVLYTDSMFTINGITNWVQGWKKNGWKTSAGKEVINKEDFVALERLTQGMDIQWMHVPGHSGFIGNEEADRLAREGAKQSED
# Procedure: (§3) Biochemical inhibition of HBV RNaseH and human RNaseH1 activity. […] RNaseH activity was measured using an oligonucleotide-directed RNA cleavage assay in which a DNA oligonucleotide is annealed to an internally ^32P-labeled RNA, the RNA:DNA heteroduplex is incubated with the enzyme to permit cleavage, and then the RNA cleavage products are resolved by electrophoresis and detected by autoradiography. The compounds were included in the reaction mixes at 60, 20, or 10 μM and the amount of the RNA cleavage products in the compound-containing reactions was compared to reactions in which an equivalent concentration of DMSO was added as a vehicle control. The data were quantified using ImageJ.
# HBV RNaseH = target: T2, HBV RNaseH (Hepatitis B virus genotype A2 subtype adw2, UniProt P03159); assay: Biochemical inhibition of HBV RNaseH (oligonucleotide-directed RNA cleavage assay); settings: compounds at 60, 20 or 10 μM
# T2 construct: One of the inventors recently produced active recombinant HBV RNase H; hexahistidine; made in house; host or cells: E. coli
# Procedure: as §3
# T2 sequence (P03159 693-845): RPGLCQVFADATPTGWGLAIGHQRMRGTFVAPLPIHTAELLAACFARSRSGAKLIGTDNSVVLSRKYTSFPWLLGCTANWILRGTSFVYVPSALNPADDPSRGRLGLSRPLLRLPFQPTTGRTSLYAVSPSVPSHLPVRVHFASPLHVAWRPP
SMILES,Inhibition of HSV-1 replication (in words) (HSV-1),Inhibition of HSV-2 replication (in words) (HSV-2),Anti-HBV RNaseH (HBV RNaseH),Anti-HSV-1 Log10 suppression 5 μM (screening symbol) (HSV-1),Anti-HSV-1 Log10 suppression 50 μM (screening symbol) (HSV-1),Anti-HSV-2 Log10 suppression 5 μM (screening symbol) (HSV-2),Anti-HSV-2 Log10 suppression 50 μM (screening symbol) (HSV-2),further results
"Nc1ccn(C[C@@H](CO)OCP(=O)(O)O)c(=O)n1 [CID, Cidofovir, reference compound]",negligible,negligible,,,,,,Anti-HSV-1 Log10 suppression 5 μM (HSV-1): 0.77 log10; Anti-HSV-1 Log10 suppression 50 μM (HSV-1): 2.67 log10; Anti-HSV-2 Log10 suppression 5 μM (HSV-2): 0.38 log10; Anti-HSV-2 Log10 suppression 50 μM (HSV-2): 1.19 log10; Anti-Human RNaseH1 (human RNaseH1): − (no inhibition at 60 μM)
NC(=O)c1c(N)sc2c1CCCCC2 [Compound 3],,,− (no inhibition at 60 μM),,,,,Anti-HSV-1 Log10 suppression 5 μM (HSV-1): 0.19 log10; Anti-HSV-1 Log10 suppression 50 μM (HSV-1): −0.03 log10; Anti-HSV-2 Log10 suppression 5 μM (HSV-2): 0.06 log10; Anti-HSV-2 Log10 suppression 50 μM (HSV-2): 0.39 log10
COC(=O)Oc1nsnc1N1CCOCC1 [Compound 4],,,+ (inhibition at 60 μM),−,−,−,−,
Cc1cc(C)c(C#N)c(=N)o1 [Compound 5],,,+ (inhibition at 60 μM),−,−,−,−,
CCOC(=O)c1sc(NC(=O)CSc2nnc(Cc3ccccc3)o2)c(C#N)c1C [Compound 6],,,+ (inhibition at 60 μM),−,−,−,−,
Cc1cc(C(F)(F)F)c(C#N)c(=O)[nH]1 [Compound 19],,,− (no inhibition at 60 μM),−,−,−,−,
N#Cc1cc2ccccc2oc1=N [Compound 21],,,− (no inhibition at 60 μM),−,−,−,−,
NC(=O)c1c(N)sc2c1CCCCC2 [Compound 22],,,,−,−,−,−,
CCOC(=O)c1sc(NC(=O)CSc2nnc(-c3ccc(Cl)cc3)o2)c(C#N)c1C [Compound 24],,,− (no inhibition at 60 μM),−,−,−,−,
Cc1sc2nc(-c3ccc([N+](=O)[O-])cc3)[nH]c(=O)c2c1C [Compound 38],,,+++ (inhibition at 10 μM),,,,,Anti-HSV-1 Log10 suppression 5 μM (HSV-1): −0.07 log10; Anti-HSV-1 Log10 suppression 50 μM (HSV-1): 0.07 log10; Anti-HSV-2 Log10 suppression 5 μM (HSV-2): 0.11 log10; Anti-HSV-2 Log10 suppression 50 μM (HSV-2): −0.05 log10
[N-]=[N+]=NCc1cccc(C(=O)CC(=O)C(=O)O)c1 [Compound 40],negligible inhibition,negligible inhibition,,,,,,
O=C(Oc1cccccc1=O)c1ccc(Cl)cc1 [Compound 63],negligible inhibition,negligible inhibition,,,,,,
O=C(O)c1cn(C2CC2)c2cc(Cl)c(F)cc2c1=O [Compound 66],,,− (no inhibition at 60 μM),−,+,−,−,
CCn1cc(C(=O)O)c(=O)c2ccc(C)nc21 [Compound 70],,,− (no inhibition at 60 μM),−,−,−,−,
Cn1c(N2CCCCS2(=O)=O)nc(C(=O)NCc2ccc(F)cc2)c(O)c1=O [Compound 72],negligible inhibition,negligible inhibition,,,,,,
"C[C@@H]1CCO[C@H]2Cn3cc(C(=O)NCc4ccc(F)cc4F)c(=O)c(O)c3C(=O)N12 [Compound 73, Dolutegravir, reference compound]",negligible inhibition,negligible inhibition,,,,,,
Cn1c(C(C)(C)NC(=O)c2ccccc2)nc(C(=O)NCc2ccc(F)cc2)c(O)c1=O [Compound 121],negligible inhibition,negligible inhibition,,,,,,
O=C1c2ccc3ccccc3c2C(=O)N1[O-].[Na+] [Compound 128],None of these compounds was particularly efficacious,None of these compounds was particularly efficacious,,,,,,
O=C(O)C(=O)CC(=O)c1ccccc1 [Compound 131],negligible inhibition,negligible inhibition,,,,,,
O=C1C(=O)C(c2ccc(O)c(O)c2)Oc2cc(O)cc(O)c21 (stereo not drawn) [Compound 134],negligible inhibition,negligible inhibition,,,,,,
O=C1C(=O)C(c2cc(O)c(O)c(O)c2)Oc2cc(O)ccc21 (stereo not drawn) [Compound 135],negligible inhibition,negligible inhibition,,,,,,
Cc1sc2nc(-c3ccccc3)nc(O)c2c1C [Compound 136],negligible inhibition,negligible inhibition,,,,,,
O=C1c2ccccc2C(=O)N1O [Compound 138],None of these compounds was particularly efficacious,None of these compounds was particularly efficacious,,,,,,
O=C1CCC(=O)N1O [Compound 139],None of these compounds was particularly efficacious,None of these compounds was particularly efficacious,,,,,,
CC1=C(C#N)C(=O)NC(=O)C1=Cc1ccc(-c2ccccc2)o1 [Compound 140],None of these compounds was particularly efficacious,None of these compounds was particularly efficacious,,,,,,
